Measured values: ChEMBL document CHEMBL1201862, “PubChem BioAssay data set” (2004)
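Exposure lasted 48 hours, with cells grown in 96-well plates and compounds tested at five concentrations. The concentration for 50% growth inhibition is given as GI50.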 The source made the active and inactive calls. Rule as the data show it: active = GI50 up to about 1.1 µM and inactive = higher.

What was measured:
Assay in all cases: NCI-60 cell line screen, 48 h
SNB-75 = system: SNB-75
CAKI-1 = system: CAKI-1
OVCAR-8 = system: OVCAR-8
OVCAR-4 = system: OVCAR-4
HOP-92 = system: HOP-92
HL-60 = system: HL-60
CCRF-CEM = system: CCRF-CEM
TK-10 = system: TK-10
SK-MEL-28 = system: SK-MEL-28
HCT-15 = system: HCT-15
Malme-3M = system: Malme-3M
HT-29 = system: HT-29
NCI-H226 = system: NCI-H226
NCI-H460 = system: NCI-H460
COLO 205 = system: COLO 205
U-251 = system: U-251
MDA-MB-435 = system: MDA-MB-435
KM12 = system: KM12
EKVX = system: EKVX
OVCAR-5 = system: OVCAR-5
UACC-257 = system: UACC-257
SN12C = system: SN12C
SR = system: SR
T47D = system: T47D
786-0 = system: 786-0
SF-295 = system: SF-295
NCI-H522 = system: NCI-H522
SF-539 = system: SF-539
MCF7 = system: MCF7
MDA-MB-231 = system: MDA-MB-231
RPMI-8226 = system: RPMI-8226
HCT-116 = system: HCT-116
NCI-H23 = system: NCI-H23
K562 = system: K562
UO-31 = system: UO-31
PC-3 = system: PC-3
Hs-578T = system: Hs-578T
RXF 393 = system: RXF 393
OVCAR-3 = system: OVCAR-3
DU-145 = system: DU-145
NCI/ADR-RES = system: NCI/ADR-RES
SK-MEL-5 = system: SK-MEL-5
LOX IMVI = system: LOX IMVI
SK-OV-3 = system: SK-OV-3
IGROV-1 = system: IGROV-1
A549 = system: A549
SW-620 = system: SW-620
SNB-19 = system: SNB-19
ACHN = system: ACHN
SF-268 = system: SF-268
SK-MEL-2 = system: SK-MEL-2
A498 = system: A498
M14 = system: M14
HOP-62 = system: HOP-62
MOLT-4 = system: MOLT-4
UACC-62 = system: UACC-62

COc1ccc(C(Cc2ccccc2)C2NC(=S)NC2=O)cc1 (stereo not drawn) was tested, and the GI50 (SNB-75) was > 25 µM (inactive), the GI50 (CAKI-1) was > 25 µM (inactive) and the GI50 (OVCAR-8) was > 25 µM (inactive). The GI50 (OVCAR-4) was > 25 µM (inactive), the GI50 (HOP-92) was > 25 µM (inactive) and the GI50 (HL-60) was > 25 µM (inactive). The GI50 (CCRF-CEM) was > 25 µM (inactive), the GI50 (TK-10) was > 25 µM (inactive) and the GI50 (SK-MEL-28) was > 25 µM (inactive). The GI50 (HCT-15) was over 25 µM, the GI50 (Malme-3M) was > 25 µM (inactive) and the GI50 (HT-29) was > 25 µM (inactive). For the same compound, the GI50 (NCI-H226) was > 25 µM (inactive), the GI50 (NCI-H460) was > 25 µM (inactive) and the GI50 (COLO 205) was > 25 µM (inactive). For the same compound, the GI50 (U-251) was > 25 µM (inactive), the GI50 (MDA-MB-435) was > 25 µM (inactive) and the GI50 (KM12) was > 25 µM (inactive). The GI50 (EKVX) was > 25 µM (inactive), the GI50 (OVCAR-5) was > 25 µM (inactive) and the GI50 (UACC-257) was > 25 µM (inactive). The GI50 (SN12C) was > 25 µM (inactive), the GI50 (SR) was 9.27 µM (inactive) and the GI50 (T47D) was > 25 µM (inactive). For the same compound, the GI50 (786-0) was > 25 µM (inactive), the GI50 (SF-295) was > 25 µM (inactive) and the GI50 (NCI-H522) was > 25 µM (inactive). For the same compound, the GI50 (SF-539) was > 25 µM (inactive), the GI50 (MCF7) was > 25 µM (inactive) and the GI50 (MDA-MB-231) was > 25 µM (inactive). For the same compound, the GI50 (RPMI-8226) was > 25 µM (inactive), the GI50 (HCT-116) was > 25 µM (inactive) and the GI50 (NCI-H23) was > 25 µM (inactive). The GI50 (K562) was > 25 µM (inactive), the GI50 (UO-31) was > 25 µM (inactive) and the GI50 (PC-3) was > 25 µM (inactive). The GI50 (Hs-578T) was > 25 µM (inactive), the GI50 (RXF 393) was > 25 µM (inactive) and the GI50 (OVCAR-3) was > 25 µM (inactive). The GI50 (DU-145) was > 25 µM (inactive), the GI50 (NCI/ADR-RES) was > 25 µM (inactive) and the GI50 (SK-MEL-5) was > 25 µM (inactive). For the same compound, the GI50 (LOX IMVI) was > 25 µM (inactive), the GI50 (SK-OV-3) was > 25 µM (inactive) and the GI50 (IGROV-1) was > 25 µM (inactive). For the same compound, the GI50 (A549) was > 25 µM (inactive), the GI50 (SW-620) was > 25 µM (inactive) and the GI50 (SNB-19) was > 25 µM (inactive). The GI50 (ACHN) was > 25 µM (inactive), the GI50 (SF-268) was > 25 µM (inactive) and the GI50 (SK-MEL-2) was > 25 µM (inactive). The GI50 (A498) was > 25 µM (inactive), the GI50 (M14) was > 25 µM (inactive) and the GI50 (HOP-62) was > 25 µM (inactive). The GI50 (MOLT-4) was > 25 µM (inactive).
With O=S1(=O)c2ccccc2Oc2ccc(C(/C=N/O)=N/O)cc21 the GI50 (SNB-75) was 45.3 µM (inactive), the GI50 (CAKI-1) was 16.5 µM (inactive) and the GI50 (OVCAR-8) was 18.4 µM (inactive). For the same compound, the GI50 (OVCAR-4) was 39.1 µM (inactive), the GI50 (UACC-62) was 71.3 µM (inactive) and the GI50 (HOP-92) was 45.2 µM (inactive). For the same compound, the GI50 (HL-60) was 17.3 µM (inactive), the GI50 (CCRF-CEM) was 25.8 µM (inactive) and the GI50 (TK-10) was 0.155 µM (active). For the same compound, the GI50 (SK-MEL-28) was 56.8 µM (inactive), the GI50 (HCT-15) was 41 µM and the GI50 (Malme-3M) was 0.132 µM (active). The GI50 (HT-29) was 63.8 µM (inactive), the GI50 (NCI-H226) was 57.4 µM (inactive) and the GI50 (NCI-H460) was 27.9 µM (inactive). For the same compound, the GI50 (COLO 205) was > 100 µM (inactive), the GI50 (U-251) was 41.2 µM (inactive) and the GI50 (MDA-MB-435) was 17.5 µM (inactive). The GI50 (KM12) was 22 µM (inactive), the GI50 (EKVX) was 7.71 µM (inactive) and the GI50 (OVCAR-5) was > 100 µM (inactive). The GI50 (SN12C) was 61.9 µM (inactive), the GI50 (T47D) was 9.08 µM (inactive) and the GI50 (786-0) was 46.1 µM (inactive). The GI50 (SF-295) was 18.2 µM (inactive), the GI50 (NCI-H522) was 12.1 µM (inactive) and the GI50 (SF-539) was 26 µM (inactive). The GI50 (MCF7) was 26.5 µM (inactive), the GI50 (MDA-MB-231) was 45.5 µM (inactive) and the GI50 (RPMI-8226) was 19.1 µM (inactive). The GI50 (HCT-116) was 43.7 µM (inactive), the GI50 (K562) was 30.1 µM (inactive) and the GI50 (UO-31) was 24 µM (inactive). For the same compound, the GI50 (PC-3) was 32.5 µM (inactive), the GI50 (RXF 393) was 15.5 µM (inactive) and the GI50 (OVCAR-3) was 12.3 µM (inactive). The GI50 (DU-145) was 11.2 µM (inactive), the GI50 (NCI/ADR-RES) was 17.4 µM (inactive) and the GI50 (LOX IMVI) was 19.8 µM (inactive). For the same compound, the GI50 (SK-OV-3) was 39.6 µM (inactive), the GI50 (IGROV-1) was 29.2 µM (inactive) and the GI50 (A549) was 65.5 µM (inactive). For the same compound, the GI50 (ACHN) was 38.6 µM (inactive), the GI50 (SF-268) was 30.1 µM (inactive) and the GI50 (SK-MEL-2) was 25.7 µM (inactive). The GI50 (M14) was 37.3 µM (inactive), the GI50 (HOP-62) was 65.5 µM (inactive) and the GI50 (MOLT-4) was 27.5 µM (inactive).
